Assay: Accelerated stability test (50° C.) with pH stability test of sucralose sample solution
Assay type: physicochemical
Conditions: for Days to pH Failure / Days to pH Failure (Final Product Moisture Content) / Days to pH Failure (Initial Moisture Content): 50° C.; for Days to pH Failure: WHIRLPAK polyethylene bags, failure = pH drop ≧1.0; for Initial pH: sample solution (5 g in 50 ml pH-adjusted water) at time zero; for Initial pH difference: sample solution vs pH-adjusted water at time zero; for stability at intermediate moisture contents compared with final moisture levels: crystallized with no pH control, intermediate moisture 3 to 5% vs final 0.05, 0.11, 0.21%; for Days to pH Failure (Final Product Moisture Content): final dried product; for Days to pH Failure (Final Product Moisture Content) / Days to pH Failure (Initial Moisture Content): Example 3; for Days to pH Failure (Initial Moisture Content): partially dried product at intermediate (initial) moisture content
Excerpt: Label seven 6 oz. and seven 18 oz. WHIRLPAK® polyethylene bags with indelible marker for each batch being tested for stability. Accurately weigh 25 g±0.01 g of sucralose into each 6 oz. WHIRLPAK® polyethylene bag. Heat or impulse seal the 6 oz. bag to ensure air tightness. Cut off any excess polyethylene at the top of the bag above the seal. Place the 6 oz. sealed bag into the 18 oz. bag and heat or impulse seal the 18 oz. bag to ensure air tightness. Roll down the top of the 18 oz. bag above the seal and bend the metal ties to form hooks.
Place the prepared bags into an oven stabilized at 50° C.±0.5° C. by hanging them from racks by the bag hooks. The bags must be freely suspended and not touch anything. Record the time samples are placed into the oven.
The pH stability test is conducted on the sucralose at time zero (the day the samples are placed in the oven, before the sucralose is exposed to elevated temperature) and every 24 hours until the batch being tested fails the test.
Place approximately 100 ml of deionized water into a 150 ml beaker. Using 0.1 N hydrochloric acid and/or 0.1 N sodium hydroxide, adjust the pH of the water to be between 5.8 and 6.0. Record the pH reading.
Accurately weigh 5 g±0.001 g of the product to be tested and transfer it to a 50 ml volumetric flask. Dissolve and bring to the mark by adding pH-adjusted water. If the sample to be tested is one that has been exposed to heat, remove one bag of the batch being tested from the oven and allow it to cool to room temperature before opening and sampling.
Pour the solution into a 100 ml beaker containing a stir bar, and slowly stir the solution on a magnetic stirrer. Immerse the pH electrode in the sample, allow the pH reading to stabilize, and record the pH reading of the sample. If no pH drop is observed after all the bags have been tested, the experiment is void and the test must repeated with a larger number of bags.
Record (to one decimal place) the pH of both the pH-adjusted water used and the sample sucralose solution. Subtract the pH of the […]. Report the result as (−) for a pH drop and (+) for a pH gain, e.g.:
The sample fails the test if there is a pH drop of 1.0 pH unit or more. The pH stability of the batch is defined as the number of days until the pH drop between the sample solution and that of the pH adjusted water is ≧1.0.
Samples of sucralose were tested for stability using the above procedures, but using bags of different moisture permeability. All other experimental details were the same. The TYVEK®/polyethylene bags are permeable; the WHIRLPAK® bags are less permeable. The A8080 bag consists of aluminum foil laminated to low-density polyethylene, which makes it very impermeable to moisture.

[1] = Example 1, sodium acetate in mother liquor varied
[2] = (−) pH drop, (+) pH gain, Example 1
[3] = Example 2, pH at crystallizer varied

SMILES | Days to pH Failure [1] | Initial pH [1] | Initial pH difference [2] | Days to pH Failure [3] | Initial pH difference [3] | Days to pH Failure (Final Product Moisture Content) | Days to pH Failure (Initial Moisture Content) | stability at intermediate moisture contents compared with final moisture levels
OC[C@H]1O[C@H](O[C@]2(CCl)O[C@H](CCl)[C@@H](O)[C@@H]2O)[C@H](O)[C@@H](O)[C@H]1Cl [Sample 26, 4,1′,6′-trichloro-4,1′,6′-trideoxy-galactosucrose] | 6 Days | 6.06 | +0.10 | – | – | – | – | –
OC[C@H]1O[C@H](O[C@]2(CCl)O[C@H](CCl)[C@@H](O)[C@@H]2O)[C@H](O)[C@@H](O)[C@H]1Cl [Sample 27, 4,1′,6′-trichloro-4,1′,6′-trideoxy-galactosucrose] | 6 Days | 5.99 | +0.03 | – | – | – | – | –
OC[C@H]1O[C@H](O[C@]2(CCl)O[C@H](CCl)[C@@H](O)[C@@H]2O)[C@H](O)[C@@H](O)[C@H]1Cl [Sample 28, 4,1′,6′-trichloro-4,1′,6′-trideoxy-galactosucrose] | 6 Days | 6.00 | +0.02 | – | – | – | – | –
OC[C@H]1O[C@H](O[C@]2(CCl)O[C@H](CCl)[C@@H](O)[C@@H]2O)[C@H](O)[C@@H](O)[C@H]1Cl [Sample 29, 4,1′,6′-trichloro-4,1′,6′-trideoxy-galactosucrose] | 6 Days | 6.09 | +0.12 | – | – | – | – | –
OC[C@H]1O[C@H](O[C@]2(CCl)O[C@H](CCl)[C@@H](O)[C@@H]2O)[C@H](O)[C@@H](O)[C@H]1Cl [Sample 30, 4,1′,6′-trichloro-4,1′,6′-trideoxy-galactosucrose] | 5 Days | 5.95 | −0.02 | – | – | – | – | –
OC[C@H]1O[C@H](O[C@]2(CCl)O[C@H](CCl)[C@@H](O)[C@@H]2O)[C@H](O)[C@@H](O)[C@H]1Cl [Sample 31, 4,1′,6′-trichloro-4,1′,6′-trideoxy-galactosucrose] | 5 Days | 6.03 | +0.06 | – | – | – | – | –
OC[C@H]1O[C@H](O[C@]2(CCl)O[C@H](CCl)[C@@H](O)[C@@H]2O)[C@H](O)[C@@H](O)[C@H]1Cl [Sample 32, 4,1′,6′-trichloro-4,1′,6′-trideoxy-galactosucrose] | – | – | – | 3 Days | −0.90 | – | – | less stable at intermediate moisture contents (3 to 5%) than they were at their final moisture levels
OC[C@H]1O[C@H](O[C@]2(CCl)O[C@H](CCl)[C@@H](O)[C@@H]2O)[C@H](O)[C@@H](O)[C@H]1Cl [Sample 33, 4,1′,6′-trichloro-4,1′,6′-trideoxy-galactosucrose] | – | – | – | 4 Days | −0.94 | – | – | less stable at intermediate moisture contents (3 to 5%) than they were at their final moisture levels

More lines, main results first:

Days to pH Failure [1] | Initial pH [1] | Initial pH difference [2] | Days to pH Failure [3] | Initial pH difference [3] | Days to pH Failure (Final Product Moisture Content) | Days to pH Failure (Initial Moisture Content) | SMILES | stability at intermediate moisture contents compared with final moisture levels
– | – | – | 3 Days | −1.03 | – | – | OC[C@H]1O[C@H](O[C@]2(CCl)O[C@H](CCl)[C@@H](O)[C@@H]2O)[C@H](O)[C@@H](O)[C@H]1Cl [Sample 34, 4,1′,6′-trichloro-4,1′,6′-trideoxy-galactosucrose] | less stable at intermediate moisture contents (3 to 5%) than they were at their final moisture levels
– | – | – | 5 Days | +0.10 | 5 Days | 7 Days | OC[C@H]1O[C@H](O[C@]2(CCl)O[C@H](CCl)[C@@H](O)[C@@H]2O)[C@H](O)[C@@H](O)[C@H]1Cl [Sample 35, 4,1′,6′-trichloro-4,1′,6′-trideoxy-galactosucrose] | –
– | – | – | 5 Days | +0.04 | 5 Days | 7 Days | OC[C@H]1O[C@H](O[C@]2(CCl)O[C@H](CCl)[C@@H](O)[C@@H]2O)[C@H](O)[C@@H](O)[C@H]1Cl [Sample 36, 4,1′,6′-trichloro-4,1′,6′-trideoxy-galactosucrose] | –
– | – | – | 5 Days | −0.06 | 5 Days | 21 Days | OC[C@H]1O[C@H](O[C@]2(CCl)O[C@H](CCl)[C@@H](O)[C@@H]2O)[C@H](O)[C@@H](O)[C@H]1Cl [Sample 37, 4,1′,6′-trichloro-4,1′,6′-trideoxy-galactosucrose] | –
– | – | – | 6 Days | +0.17 | 6 Days | 23 Days | OC[C@H]1O[C@H](O[C@]2(CCl)O[C@H](CCl)[C@@H](O)[C@@H]2O)[C@H](O)[C@@H](O)[C@H]1Cl [Sample 38, 4,1′,6′-trichloro-4,1′,6′-trideoxy-galactosucrose] | –
– | – | – | 7 Days | −0.02 | 7 Days | 13 Days | OC[C@H]1O[C@H](O[C@]2(CCl)O[C@H](CCl)[C@@H](O)[C@@H]2O)[C@H](O)[C@@H](O)[C@H]1Cl [Sample 39, 4,1′,6′-trichloro-4,1′,6′-trideoxy-galactosucrose] | –
– | – | – | 7 Days | +0.40 | 7 Days | 13 Days | OC[C@H]1O[C@H](O[C@]2(CCl)O[C@H](CCl)[C@@H](O)[C@@H]2O)[C@H](O)[C@@H](O)[C@H]1Cl [Sample 40, 4,1′,6′-trichloro-4,1′,6′-trideoxy-galactosucrose] | –
– | – | – | 5 Days | +0.40 | 5 Days | 12 Days | OC[C@H]1O[C@H](O[C@]2(CCl)O[C@H](CCl)[C@@H](O)[C@@H]2O)[C@H](O)[C@@H](O)[C@H]1Cl [Sample 41, 4,1′,6′-trichloro-4,1′,6′-trideoxy-galactosucrose] | –
– | – | – | 5 Days | +0.17 | 5 Days | 9 Days | OC[C@H]1O[C@H](O[C@]2(CCl)O[C@H](CCl)[C@@H](O)[C@@H]2O)[C@H](O)[C@@H](O)[C@H]1Cl [Sample 42, 4,1′,6′-trichloro-4,1′,6′-trideoxy-galactosucrose] | –
– | – | – | 5 Days | +0.29 | 5 Days | 8 Days | OC[C@H]1O[C@H](O[C@]2(CCl)O[C@H](CCl)[C@@H](O)[C@@H]2O)[C@H](O)[C@@H](O)[C@H]1Cl [Sample 43, 4,1′,6′-trichloro-4,1′,6′-trideoxy-galactosucrose] | –
– | – | – | 6 Days | −0.18 | – | – | OC[C@H]1O[C@H](O[C@]2(CCl)O[C@H](CCl)[C@@H](O)[C@@H]2O)[C@H](O)[C@@H](O)[C@H]1Cl [Sample 44, 4,1′,6′-trichloro-4,1′,6′-trideoxy-galactosucrose] | –
– | – | – | 7 Days | +0.17 | – | – | OC[C@H]1O[C@H](O[C@]2(CCl)O[C@H](CCl)[C@@H](O)[C@@H]2O)[C@H](O)[C@@H](O)[C@H]1Cl [Sample 45, 4,1′,6′-trichloro-4,1′,6′-trideoxy-galactosucrose] | –

— patent US8017767B2, “Sucralose composition” (Tate & Lyle Public Limited Company, priority 2000, dated 2011)
